Test system: 521955-158-R2-J5-PDC complex spheroid growth, % test/control
Assay: Anticancer human tumor 521955-158-R2-J5-PDC patient-derived pancreatic carcinoma cell line growth inhibition [Asc]
Conditions: for IC50: curve of first compound; for viability, T/C: stronger effect = lower value
Procedure: Multicellular complex tumor spheroid response to apoptosis pathway targeting inhibitors Alrizomadlin, Pelcitoclax, and Dasminapant in combination with a variety of drugs and investigational agents in selected tumor cell lines
The MDM2 inhibitor alrizomadlin, the Bcl-2/Bcl-xL inhibitor pelcitoclax, and the IAPs inhibitor dasminapant were evaluated both individually and in combination with standard of care and investigational anticancer small molecules within a complex spheroid model of solid tumors. . Complex spheroids include a stromal component modeled by human endothelial cells (HUVEC) and fibroblasts modeled by human mesenchymal stem cells (MSCs). The concentration ranges selected for each drug and investigational agent were based upon clinically achievable concentrations if the clinical Cmax of the agent was known.
Compounds. The drugs and investigational agents: alrizomadlin (APG-115; NSC831270), pelcitoclax (APG-1252; NSC835773), dasminapant (APG-1387;NSC834197), TAK-243 (NSC785004), copanlisib (NSC809693), olaparib (NSC753686), talazoparib (NSC767125), cobimetinib (NSC 768068), eltanexor (KPT-8602, NSC 794443), abemaciclib (NSC 768073), sotorasib (NSC818433), adagrasib (NSC 831453), MRTX-1133 (NSC 836407), Iadademestat (ORY1001, NSC 806812), and RMC-4630 (NSC839698), were obtained from the NCI Developmental Therapeutics Program Chemical Repository. The FDA-approved anticancer drug set is available from the Developmental Therapeutics Program at https://dtp.cancer.gov/organization/dscb/obtaining/available plates.htm. […] The stock solutions were prepared in dimethyl sulfoxide (DMSO, Sigma-Aldrich, St. Louis, MO, cat. D2650) at 800-fold the tested concentration and stored at -70 degrees C prior to their use. All drugs and investigational agents were tested over a range starting from a high concentration at or near the clinical Cmax and decreasing in half-log increments. If the clinical Cmax for an agent had not been determined, the highest concentration tested was 10 microM.
The patient-derived cancer (PDC) cell lines include five colon adenocarcinomas: 186277-243-T-J2-PDC, 616215-338-R-J1-PDC, 439559-082-T-J2-PDC, 463943-066-T-J2-PDC, and 519858-162-T-J1-PDC; three pancreatic carcinomas: 323965-272-R-J2-PDC, 521955-158-R6-J3-PDC, and 521955-158-R2-J5-PDC; two uterine sarcomas: 327498-152-R-J2-PDC and 993429-296-R-J1-PDC; two rhabdomyosarcomas: 755483-174-R-J1-PDC and 772245-204-R-J1-PDC; two soft tissue sarcomas: 126254-015-R-J1-PDC and 494315-158-R-J1-PDC; two malignant fibrous histiocytomas: 317291-083-R-J1-PDC and 596521-263-R-J1-PDC; two breast carcinomas: 171881-019-R-J1-PDC and 885512-296-R-J2-PDC; and one ovarian carcinoma: 6556581-035-R-J-PDC were obtained from the NCI PDMR, (https://pdmr.cancer.gov). The established cell lines HSSY-2 synovial sarcoma (RRID:CVCL 8719), SYO-1 synovial sarcoma (RRID:CVCL_7146), MPNST malignant peripheral neural sheath tumor were obtained from the Sloan Kettering Institute. The following established cell lines were purchased from the American Type Culture Collection (ATCC, Manassas, VA), Sor the received from the NCI repository:, PANC-1 pancreatic carcinoma (CRL-1469, RRID:CVCL_0480), OVCAR-5 ovarian carcinoma (RRID:CVCL_1628), OVCAR-8 ovarian carcinoma (RRID:CVCL_1629), , MCF-7 breast carcinoma (CRL-12584, RRID:CVCL_0031), MDA-MB-231 breast carcinoma (CRL-12532, RRID:CVCL_0062), NCI-H1876 small cell lung carcinoma (CRL-5902, RRID:CVCL_1503), NCI-H510A small cell lung carcinoma (HTB-184, RRID:CVCL_1565), NCI-H1417 (CRL-5869, RRID:CVCL_1469), and NCI-H196 small cell lung carcinoma (CRL-5823, RRID:CVCL_1509). Dr. Peter Houghton (Greehey Children's Cancer Research Institute, University of Texas Health Science Center, San Antonio, TX) provided Rh-18 rhabdomyosarcoma (RRID:CVCL_1659). Pooled donor human umbilical vein endothelial cells (HUVEC, Lonza, cat. CC-2519) and human mesenchymal stem cells (hMSC, Lonza, cat. PT-2501) were purchased from Lonza (Walkersville, MD).
Cell Culture. […]

[1] = second compound 0.03 µM, first compound 0.0316 µM
[2] = second compound 0.03 µM, first compound 0.1 µM
[3] = second compound 0.0949 µM, first compound 0.0316 µM
[4] = second compound 0.0949 µM, first compound 0.1 µM
[5] = second compound 0.3 µM, first compound 0.0316 µM
[6] = second compound 0.3 µM, first compound 0.1 µM
[7] = second compound 0.949 µM, first compound 0.0316 µM
[8] = second compound 0.949 µM, first compound 0.1 µM
[9] = second compound 3 µM, first compound 0.0316 µM
[10] = second compound 3 µM, first compound 0.1 µM
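Further: spheroids exposed to agents for 7 days before readout.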
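Wherever viability, T/C is given: 100% = DMSO vehicle control viability.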

For `Cn1ncnc1[C@H]1c2n[nH]c(=O)c3cc(F)cc(c23)N[C@@H]1c1ccc(F)cc1` + CCN1C(C(=O)NC23CCC(C(=O)O)(CC2)CC3)C(c2cccc(Cl)c2F)C2(C(=O)Nc3cc(Cl)ccc32)C12CCCCC2, which IC50 (second compound 0.03 µM) is on record?
The IC50 was > 0.1 µM.

And the IC50 (second compound 0.0949 µM)?
Its IC50 is > 0.1 µM.

And the IC50 (second compound 0.3 µM)?
The IC50 was > 0.1 µM.

What about the IC50 (second compound 0.949 µM) of the same compound?
Its IC50 is > 0.1 µM.

What about the IC50 (second compound 3 µM) of the same compound?
The IC50 was > 0.1 µM.

And the viability, T/C (second compound 0.03 µM, first compound 0.000316 µM)?
The viability, T/C was 142%.

What about the viability, T/C (second compound 0.03 µM, first compound 0.001 µM) of the same compound?
Its viability, T/C is 56.8%.

What about the viability, T/C (second compound 0.03 µM, first compound 0.00316 µM) of the same compound?
Its viability, T/C is 100%.

And the viability, T/C (second compound 0.03 µM, first compound 0.01 µM)?
Its viability, T/C is 57.9%.

And the viability, T/C [1]?
Its viability, T/C is 76.7%.

And the viability, T/C [2]?
Its viability, T/C is 55.6%.

What about the viability, T/C (second compound 0.0949 µM, first compound 0.000316 µM) of the same compound?
The viability, T/C was 104%.

And the viability, T/C (second compound 0.0949 µM, first compound 0.001 µM)?
Its viability, T/C is 77.5%.

What about the viability, T/C (second compound 0.0949 µM, first compound 0.00316 µM) of the same compound?
Its viability, T/C is 90.5%.

What about the viability, T/C (second compound 0.0949 µM, first compound 0.01 µM) of the same compound?
The viability, T/C was 71.7%.

What about the viability, T/C [3] of the same compound?
The viability, T/C was 66.6%.

What about the viability, T/C [4] of the same compound?
The viability, T/C was 49.4%.

And the viability, T/C (second compound 0.3 µM, first compound 0.000316 µM)?
Its viability, T/C is 90.6%.

What about the viability, T/C (second compound 0.3 µM, first compound 0.001 µM) of the same compound?
The viability, T/C was 100%.

What about the viability, T/C (second compound 0.3 µM, first compound 0.00316 µM) of the same compound?
The viability, T/C was 101%.

And the viability, T/C (second compound 0.3 µM, first compound 0.01 µM)?
Its viability, T/C is 110%.

And the viability, T/C [5]?
The viability, T/C was 78%.

What about the viability, T/C [6] of the same compound?
The viability, T/C was 67.8%.

And the viability, T/C (second compound 0.949 µM, first compound 0.000316 µM)?
The viability, T/C was 116%.

And the viability, T/C (second compound 0.949 µM, first compound 0.001 µM)?
Its viability, T/C is 135%.

What about the viability, T/C (second compound 0.949 µM, first compound 0.00316 µM) of the same compound?
The viability, T/C was 107%.

What about the viability, T/C (second compound 0.949 µM, first compound 0.01 µM) of the same compound?
The viability, T/C was 98.9%.

What about the viability, T/C [7] of the same compound?
Its viability, T/C is 94.2%.

What about the viability, T/C [8] of the same compound?
Its viability, T/C is 73%.

And the viability, T/C (second compound 3 µM, first compound 0.000316 µM)?
The viability, T/C was 146%.

What about the viability, T/C (second compound 3 µM, first compound 0.001 µM) of the same compound?
The viability, T/C was 116%.

And the viability, T/C (second compound 3 µM, first compound 0.00316 µM)?
Its viability, T/C is 122%.

And the viability, T/C (second compound 3 µM, first compound 0.01 µM)?
Its viability, T/C is 130%.

What about the viability, T/C [9] of the same compound?
The viability, T/C was 122%.

And the viability, T/C [10]?
Its viability, T/C is 86.6%.

Which results are given for `O=C(c1cc(Cc2n[nH]c(=O)c3ccccc23)ccc1F)N1CCN(C(=O)C2CC2)CC1` + CCN1C(C(=O)NC23CCC(C(=O)O)(CC2)CC3)C(c2cccc(Cl)c2F)C2(C(=O)Nc3cc(Cl)ccc32)C12CCCCC2?
IC50 (second compound 0.03 µM): > 10 µM; IC50 (second compound 0.0949 µM): > 10 µM; IC50 (second compound 0.3 µM): > 10 µM; IC50 (second compound 0.949 µM): > 10 µM; IC50 (second compound 3 µM): > 10 µM; viability, T/C [1]: 101%; viability, T/C [2]: 113%; viability, T/C (second compound 0.03 µM, first compound 0.316 µM): 68.7%; viability, T/C (second compound 0.03 µM, first compound 1 µM): 91.9%; viability, T/C (second compound 0.03 µM, first compound 3.16 µM): 86.1%; viability, T/C (second compound 0.03 µM, first compound 10 µM): 63%; viability, T/C [3]: 114%; viability, T/C [4]: 102%; viability, T/C (second compound 0.0949 µM, first compound 0.316 µM): 99%; viability, T/C (second compound 0.0949 µM, first compound 1 µM): 73.2%; viability, T/C (second compound 0.0949 µM, first compound 3.16 µM): 74.2%; viability, T/C (second compound 0.0949 µM, first compound 10 µM): 74.5%; viability, T/C [5]: 96.9%; viability, T/C [6]: 131%; viability, T/C (second compound 0.3 µM, first compound 0.316 µM): 104%; viability, T/C (second compound 0.3 µM, first compound 1 µM): 87.2%; viability, T/C (second compound 0.3 µM, first compound 3.16 µM): 75.2%; viability, T/C (second compound 0.3 µM, first compound 10 µM): 66.8%; viability, T/C [7]: 123%; viability, T/C [8]: 124%; viability, T/C (second compound 0.949 µM, first compound 0.316 µM): 113%; viability, T/C (second compound 0.949 µM, first compound 1 µM): 113%; viability, T/C (second compound 0.949 µM, first compound 3.16 µM): 93.3%; viability, T/C (second compound 0.949 µM, first compound 10 µM): 88.8%; viability, T/C [9]: 109%; viability, T/C [10]: 137%; viability, T/C (second compound 3 µM, first compound 0.316 µM): 135%; viability, T/C (second compound 3 µM, first compound 1 µM): 126%; viability, T/C (second compound 3 µM, first compound 3.16 µM): 106%; viability, T/C (second compound 3 µM, first compound 10 µM): 98%
